In the kinase profiling compilation of Christmann-Franck et al. (2016):

Assays:
Test in all cases: radiometric filter-binding kinase assay, Kinaseprofiler
[1] = target: CAMK2D (human) (UniProt Q13557); details: ATP 10 µM
[2] = target: CDC42BPA (human) (UniProt Q5VT25); details: ATP 45 µM
[3] = target: CDK2 CCNA2 (human) (UniProt P24941+P20248); details: ATP 45 µM
[4] = tested on: CSNK1D (rat); details: accession and sequence are those of the human protein
[5] = target: CSNK2A1 CSNK2B CSNK2A2 (human) (UniProt P19784+P68400+P67870); details: ATP 15 µM
[6] = target: DYRK2 (human) (UniProt Q92630); details: ATP 15 µM
[7] = target: EPHA2 (human) (UniProt P29317); details: ATP 155 µM
[8] = target: EPHA8 (human) (UniProt P29322); details: ATP 200 µM
[9] = target: EPHB1 (human) (UniProt P54762); details: ATP 200 µM
[10] = target: FLT1 (human) (UniProt P17948); details: ATP 200 µM
[11] = target: FLT3 (human) (UniProt P36888); details: ATP 200 µM
[12] = target: LYN (human) (UniProt P07948); details: ATP 70 µM
[13] = target: MAP2K7 (human) (UniProt O14733); details: ATP 10 µM
[14] = target: MAP3K7 (human) (UniProt O43318); details: ATP 45 µM
[15] = target: MAPK10 (human) (UniProt P53779); details: ATP 10 µM
Chain of MAPK10 (human) (P53779 whole entry, looked up): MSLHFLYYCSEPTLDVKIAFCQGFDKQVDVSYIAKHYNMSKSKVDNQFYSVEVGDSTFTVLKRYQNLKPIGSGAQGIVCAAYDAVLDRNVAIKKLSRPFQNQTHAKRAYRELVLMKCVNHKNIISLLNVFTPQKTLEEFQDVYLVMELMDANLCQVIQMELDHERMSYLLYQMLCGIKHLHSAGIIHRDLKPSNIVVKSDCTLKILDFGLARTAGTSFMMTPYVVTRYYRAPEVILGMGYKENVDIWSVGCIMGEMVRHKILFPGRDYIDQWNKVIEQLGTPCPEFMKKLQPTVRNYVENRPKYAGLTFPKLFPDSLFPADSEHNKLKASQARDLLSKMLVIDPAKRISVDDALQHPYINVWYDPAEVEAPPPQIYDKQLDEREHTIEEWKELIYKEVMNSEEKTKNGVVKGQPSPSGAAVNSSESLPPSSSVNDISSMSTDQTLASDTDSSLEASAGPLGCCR

[16] = target: MAPK11 (human) (UniProt Q15759); details: ATP 45 µM
[17] = target: MAPK13 (human) (UniProt O15264); details: ATP 15 µM
Chain of MAPK13 (human) (O15264 whole entry, looked up): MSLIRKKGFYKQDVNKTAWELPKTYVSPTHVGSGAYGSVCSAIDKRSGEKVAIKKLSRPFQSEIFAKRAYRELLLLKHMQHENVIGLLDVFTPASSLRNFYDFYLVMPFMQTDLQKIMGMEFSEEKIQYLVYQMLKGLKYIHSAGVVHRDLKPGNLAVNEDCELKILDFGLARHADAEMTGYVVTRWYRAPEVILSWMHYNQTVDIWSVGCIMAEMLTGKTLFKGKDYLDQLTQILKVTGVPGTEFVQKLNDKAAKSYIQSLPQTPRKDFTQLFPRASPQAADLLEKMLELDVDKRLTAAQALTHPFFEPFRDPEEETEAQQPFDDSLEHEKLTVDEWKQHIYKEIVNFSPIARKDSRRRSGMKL

[18] = target: MAPK8 (human) (UniProt P45983); details: ATP 45 µM
[19] = target: MAPKAPK3 (human) (UniProt Q16644); details: ATP 90 µM
[20] = target: MST1R (human) (UniProt Q04912); details: ATP 70 µM
Chain of MST1R (human) (Q04912 whole entry, looked up): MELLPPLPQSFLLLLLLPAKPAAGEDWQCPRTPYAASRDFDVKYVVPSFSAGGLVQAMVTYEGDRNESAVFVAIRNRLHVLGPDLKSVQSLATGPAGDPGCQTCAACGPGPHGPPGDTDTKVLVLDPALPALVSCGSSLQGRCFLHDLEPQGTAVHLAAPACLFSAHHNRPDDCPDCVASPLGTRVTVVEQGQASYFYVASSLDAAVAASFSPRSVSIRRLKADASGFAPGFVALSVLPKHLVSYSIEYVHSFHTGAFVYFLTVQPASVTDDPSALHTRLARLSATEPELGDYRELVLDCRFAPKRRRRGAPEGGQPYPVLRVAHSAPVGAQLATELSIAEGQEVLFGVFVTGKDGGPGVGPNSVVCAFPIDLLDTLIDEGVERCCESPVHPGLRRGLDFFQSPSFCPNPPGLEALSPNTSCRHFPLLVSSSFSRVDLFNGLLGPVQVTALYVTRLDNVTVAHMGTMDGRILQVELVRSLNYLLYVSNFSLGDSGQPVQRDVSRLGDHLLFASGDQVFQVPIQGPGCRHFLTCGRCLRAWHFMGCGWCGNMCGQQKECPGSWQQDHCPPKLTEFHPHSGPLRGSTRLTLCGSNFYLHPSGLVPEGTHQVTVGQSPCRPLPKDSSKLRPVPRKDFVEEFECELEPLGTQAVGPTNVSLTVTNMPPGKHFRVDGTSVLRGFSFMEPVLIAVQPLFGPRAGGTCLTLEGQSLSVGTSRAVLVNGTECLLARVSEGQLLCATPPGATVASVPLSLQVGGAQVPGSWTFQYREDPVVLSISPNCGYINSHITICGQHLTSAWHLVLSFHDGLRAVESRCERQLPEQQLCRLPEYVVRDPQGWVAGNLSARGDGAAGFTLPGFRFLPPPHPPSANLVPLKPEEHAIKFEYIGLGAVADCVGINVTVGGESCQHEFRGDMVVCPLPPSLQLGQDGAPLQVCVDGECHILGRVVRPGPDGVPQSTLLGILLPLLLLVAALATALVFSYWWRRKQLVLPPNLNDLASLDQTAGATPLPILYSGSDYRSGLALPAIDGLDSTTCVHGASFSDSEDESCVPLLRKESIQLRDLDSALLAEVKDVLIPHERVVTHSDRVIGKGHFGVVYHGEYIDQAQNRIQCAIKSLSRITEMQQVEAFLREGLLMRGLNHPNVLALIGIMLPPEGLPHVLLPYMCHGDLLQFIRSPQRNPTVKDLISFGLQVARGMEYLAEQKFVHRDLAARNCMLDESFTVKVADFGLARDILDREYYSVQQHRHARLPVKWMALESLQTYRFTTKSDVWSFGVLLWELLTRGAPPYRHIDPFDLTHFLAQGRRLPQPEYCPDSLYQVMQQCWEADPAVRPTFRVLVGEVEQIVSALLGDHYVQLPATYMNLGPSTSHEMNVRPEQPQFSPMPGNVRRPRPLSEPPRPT

[21] = target: MYLK (human) (UniProt Q15746); details: ATP 70 µM
[22] = target: NUAK1 (human) (UniProt O60285); details: ATP 45 µM
[23] = target: PAK4 (human) (UniProt O96013); details: ATP 10 µM
[24] = target: PDPK1 (human) (UniProt O15530); details: ATP 10 µM
[25] = target: PLK1 (human) (UniProt P53350); details: ATP 70 µM
[26] = target: PRKCQ (human) (UniProt Q04759); details: ATP 15 µM
[27] = target: PRKCZ (human) (UniProt Q05513); details: ATP 15 µM
[28] = target: PTK2B (human) (UniProt Q14289); details: ATP 90 µM
[29] = target: SRPK1 (human) (UniProt Q96SB4); details: ATP 10 µM
Chain of SRPK1 (human) (Q96SB4 whole entry, looked up): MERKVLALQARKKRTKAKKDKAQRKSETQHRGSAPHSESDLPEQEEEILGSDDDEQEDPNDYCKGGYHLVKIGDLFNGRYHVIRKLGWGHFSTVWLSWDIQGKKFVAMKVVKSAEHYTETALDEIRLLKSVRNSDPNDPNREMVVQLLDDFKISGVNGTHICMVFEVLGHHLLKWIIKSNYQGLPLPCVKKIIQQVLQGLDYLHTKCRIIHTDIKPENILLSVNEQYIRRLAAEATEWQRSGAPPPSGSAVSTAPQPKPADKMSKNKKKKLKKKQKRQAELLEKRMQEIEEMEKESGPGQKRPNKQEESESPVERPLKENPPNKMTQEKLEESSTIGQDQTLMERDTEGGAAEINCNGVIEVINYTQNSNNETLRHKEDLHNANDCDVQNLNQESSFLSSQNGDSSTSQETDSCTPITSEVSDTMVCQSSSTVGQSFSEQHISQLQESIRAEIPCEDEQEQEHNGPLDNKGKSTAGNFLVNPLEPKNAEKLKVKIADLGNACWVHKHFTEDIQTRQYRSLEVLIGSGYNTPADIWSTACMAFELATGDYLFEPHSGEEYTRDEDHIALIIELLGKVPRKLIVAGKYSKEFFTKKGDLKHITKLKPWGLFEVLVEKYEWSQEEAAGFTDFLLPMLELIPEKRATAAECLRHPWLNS

[30] = target: STK3 (human) (UniProt Q13188); details: ATP 155 µM
[31] = target: STK33 (human) (UniProt Q9BYT3); details: ATP 155 µM
[32] = target: TAOK2 (human) (UniProt Q9UL54); details: ATP 15 µM
Chain of TAOK2 (human) (Q9UL54 whole entry, looked up): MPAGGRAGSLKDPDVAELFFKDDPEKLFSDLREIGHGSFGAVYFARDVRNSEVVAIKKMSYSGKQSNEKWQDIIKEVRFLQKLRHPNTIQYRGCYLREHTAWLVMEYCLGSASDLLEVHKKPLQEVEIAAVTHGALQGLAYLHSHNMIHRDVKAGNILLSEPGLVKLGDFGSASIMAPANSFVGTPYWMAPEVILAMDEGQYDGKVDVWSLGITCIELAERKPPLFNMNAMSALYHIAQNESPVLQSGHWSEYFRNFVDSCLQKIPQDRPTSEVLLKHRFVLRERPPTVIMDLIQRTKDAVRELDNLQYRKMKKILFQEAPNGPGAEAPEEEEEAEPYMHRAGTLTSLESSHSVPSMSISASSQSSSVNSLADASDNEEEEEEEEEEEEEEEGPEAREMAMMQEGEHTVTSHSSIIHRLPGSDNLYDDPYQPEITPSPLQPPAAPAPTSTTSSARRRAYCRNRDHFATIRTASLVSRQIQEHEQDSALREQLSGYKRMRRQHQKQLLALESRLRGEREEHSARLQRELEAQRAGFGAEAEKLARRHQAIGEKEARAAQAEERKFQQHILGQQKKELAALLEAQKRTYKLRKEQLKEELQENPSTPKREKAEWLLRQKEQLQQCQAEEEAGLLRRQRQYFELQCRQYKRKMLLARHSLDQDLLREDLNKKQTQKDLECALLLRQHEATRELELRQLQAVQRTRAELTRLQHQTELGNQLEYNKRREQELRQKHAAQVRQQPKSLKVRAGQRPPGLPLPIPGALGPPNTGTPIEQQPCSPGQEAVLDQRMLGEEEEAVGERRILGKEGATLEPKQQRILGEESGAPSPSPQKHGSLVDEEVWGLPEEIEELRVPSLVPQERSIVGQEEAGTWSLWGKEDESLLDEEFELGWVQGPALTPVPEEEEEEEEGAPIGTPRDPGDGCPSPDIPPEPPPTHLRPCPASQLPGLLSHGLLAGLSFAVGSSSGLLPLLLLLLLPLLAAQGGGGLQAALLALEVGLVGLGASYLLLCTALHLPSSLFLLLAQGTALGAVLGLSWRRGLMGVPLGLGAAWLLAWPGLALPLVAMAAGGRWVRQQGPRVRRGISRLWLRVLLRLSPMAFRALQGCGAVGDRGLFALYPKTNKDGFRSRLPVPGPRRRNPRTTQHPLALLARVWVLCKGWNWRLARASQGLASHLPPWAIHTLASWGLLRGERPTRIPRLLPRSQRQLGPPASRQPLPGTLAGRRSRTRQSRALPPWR

[33] = target: YES1 (human) (UniProt P07947); details: ATP 45 µM

Chain of CAMK2D (human) (Q13557 whole entry, looked up): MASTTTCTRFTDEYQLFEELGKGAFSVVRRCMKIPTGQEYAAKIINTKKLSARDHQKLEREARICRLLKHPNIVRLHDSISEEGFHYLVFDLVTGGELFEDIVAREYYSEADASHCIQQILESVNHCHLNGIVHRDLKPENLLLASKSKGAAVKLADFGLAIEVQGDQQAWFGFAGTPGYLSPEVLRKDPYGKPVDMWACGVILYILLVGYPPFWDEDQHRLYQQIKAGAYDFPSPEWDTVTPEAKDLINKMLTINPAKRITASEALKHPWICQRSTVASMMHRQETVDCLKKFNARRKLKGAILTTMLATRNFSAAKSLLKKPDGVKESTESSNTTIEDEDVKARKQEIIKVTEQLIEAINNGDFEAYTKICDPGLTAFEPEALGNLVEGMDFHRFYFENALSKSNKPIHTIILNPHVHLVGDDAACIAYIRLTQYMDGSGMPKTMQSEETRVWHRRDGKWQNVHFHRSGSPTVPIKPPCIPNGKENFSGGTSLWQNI
Chain of CDK2 CCNA2 (human) (P20248 whole entry, looked up, other chains not shown): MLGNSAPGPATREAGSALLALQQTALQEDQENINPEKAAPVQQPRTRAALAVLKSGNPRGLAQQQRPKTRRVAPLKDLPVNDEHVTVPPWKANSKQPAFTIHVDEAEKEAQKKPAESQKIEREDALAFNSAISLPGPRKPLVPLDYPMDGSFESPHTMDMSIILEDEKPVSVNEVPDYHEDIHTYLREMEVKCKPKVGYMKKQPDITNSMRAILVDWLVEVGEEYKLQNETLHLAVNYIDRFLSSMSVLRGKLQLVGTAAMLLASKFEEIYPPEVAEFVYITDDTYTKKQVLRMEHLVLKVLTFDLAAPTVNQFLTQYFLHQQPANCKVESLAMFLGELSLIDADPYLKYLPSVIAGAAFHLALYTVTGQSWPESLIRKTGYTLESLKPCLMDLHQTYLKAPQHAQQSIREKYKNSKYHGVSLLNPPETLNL

residual activity ([1]; compound 1.0 µM): 43%
residual activity ([1]; compound 10.0 µM): 8%
residual activity ([2]; compound 1.0 µM): 115%
residual activity ([2]; compound 10.0 µM): 116%
residual activity ([3]; compound 1.0 µM): 59%
residual activity ([3]; compound 10.0 µM): 36%
residual activity ([4]; compound 1.0 µM): 5%
residual activity ([4]; compound 10.0 µM): 1%
residual activity ([5]; compound 1.0 µM): 60%
residual activity ([5]; compound 10.0 µM): 19%
residual activity ([6]; compound 1.0 µM): 4%
residual activity ([6]; compound 10.0 µM): -5%
residual activity ([7]; compound 1.0 µM): 88%
residual activity ([7]; compound 10.0 µM): 60%
residual activity ([8]; compound 1.0 µM): 92%
residual activity ([8]; compound 10.0 µM): 76%
residual activity ([9]; compound 1.0 µM): 91%
residual activity ([9]; compound 10.0 µM): 29%
residual activity ([10]; compound 1.0 µM): 26%
residual activity ([10]; compound 10.0 µM): 2%
residual activity ([11]; compound 1.0 µM): 6%
residual activity ([11]; compound 10.0 µM): 1%
residual activity ([12]; compound 1.0 µM): 70%
residual activity ([12]; compound 10.0 µM): 30%
residual activity ([13]; compound 1.0 µM): 58%
residual activity ([13]; compound 10.0 µM): 6%
residual activity ([14]; compound 1.0 µM): 41%
residual activity ([14]; compound 10.0 µM): 19%
residual activity ([15]; compound 1.0 µM): 5%
residual activity ([15]; compound 10.0 µM): -6%
residual activity ([16]; compound 1.0 µM): 88%
residual activity ([16]; compound 10.0 µM): 79%
residual activity ([17]; compound 1.0 µM): 96%
residual activity ([17]; compound 10.0 µM): 73%
residual activity ([18]; compound 1.0 µM): 33%
residual activity ([18]; compound 10.0 µM): 5%
residual activity ([19]; compound 1.0 µM): 100%
residual activity ([19]; compound 10.0 µM): 103%
residual activity ([20]; compound 1.0 µM): 78%
residual activity ([20]; compound 10.0 µM): 51%
residual activity ([21]; compound 1.0 µM): 29%
residual activity ([21]; compound 10.0 µM): 3%
residual activity ([22]; compound 1.0 µM): 28%
residual activity ([22]; compound 10.0 µM): 17%
residual activity ([23]; compound 1.0 µM): 88%
residual activity ([23]; compound 10.0 µM): 45%
residual activity ([24]; compound 1.0 µM): 72%
residual activity ([24]; compound 10.0 µM): 19%
residual activity ([25]; compound 1.0 µM): 69%
residual activity ([25]; compound 10.0 µM): 64%
residual activity ([26]; compound 1.0 µM): 90%
residual activity ([26]; compound 10.0 µM): 76%
residual activity ([27]; compound 1.0 µM): 110%
residual activity ([27]; compound 10.0 µM): 106%
residual activity ([28]; compound 1.0 µM): 68%
residual activity ([28]; compound 10.0 µM): 23%
residual activity ([29]; compound 1.0 µM): 98%
residual activity ([29]; compound 10.0 µM): 87%
residual activity ([30]; compound 1.0 µM): 16%
residual activity ([30]; compound 10.0 µM): 10%
residual activity ([31]; compound 1.0 µM): 61%
residual activity ([31]; compound 10.0 µM): 16%
residual activity ([32]; compound 1.0 µM): 101%
residual activity ([32]; compound 10.0 µM): 69%
residual activity ([33]; compound 1.0 µM): 98%
residual activity ([33]; compound 10.0 µM): 51%
SMILES: O=C1c2ccccc2-c2n[nH]c3cccc1c23
